Patent publication US7314621B2, “Cytidine deaminase” (Kyoto University, priority 1999, dated 2008)

Tests used:
AID protein = molecular target: T1, AID protein (Mus musculus, UniProt Q9WVE0); assay: Inhibition of the cytidine deaminase activity of the AID-GST fusion protein; assay type: biochemical; conditions: for inhibition of the cytidine deaminase activity of AID protein: 20 mM printed for 1,10-o-phenanthroline, both isomers tested 0 to 20 mM; for inhibition of the cytidine deaminase activity of AID protein (in words): zinc chelator and inactive isomer
T1 construct: a full length AID cDNA was expressed as a fusion protein with glutathione S-transferase (GST); made in house; host or cells: E. coli DH5alpha
Protocol: The purified AID-GST fusion protein prepared in the above (2, 4, 6, 8, 10, 20, 40, 60, 100, 200, 300, 400, and 600 ng) was incubated in the buffer (pH 7.5, the total amount 10 μl) containing 45 mM Tris with 3.3 μCi [^3H] deoxycytidine (24.8 Ci/mmol, DuPont) and 250 μM cytidine for 2 to 4 hours. The reaction was terminated by adding deoxycytidine (2 μl of 10 μg/ml) and deoxyuridine (2 μl of 10 μg/ml). Insoluble substances were removed by centrifugation, and the reaction mixture (4 μl) was subjected to the polyethylene imine-cellulose thin layer chromatography plate (VWR). The plate was developed in isopropyl alcohol/10% HCl (7:2 v/v). The plate was exposed to ultraviolet light (254 nm) for visualization and bands corresponding to deoxycytidine and deoxyuridine were collected, and added to Ultima Gold scintillation solution to be quantified by liquid scintillation photometer (Packard)

[1] = test system: mouse B cell clone CH12F3-2; assay: Production of looped-out circular DNA by class switch recombination (PCR, Southern hybridization); assay type: cell-based; conditions: cycloheximide 200 ng/ml, 6 hours, stimulation with IL-4, TGF-β, CD40L
Protocol: CH12F3-2 B cells, either stimulated by IL-4, TGF-β, and CD40L or unstimulated, were cultured for 6 hours in the presence or absence of cycloheximide (200 ng/ml) which is a protein synthesis inhibitor, respectively. Genomic DNA was extracted from each cell, and PCR was conducted with the DNA as a template following standard methods to amplify circular DNA including an Sμ sequence and an Sα sequence. PCR was conducted using pairs of primers, αF1 and […], or αF1 and […].
As a control, genomic DNA encoding glyceraldehyde-3-phosphate dehydrogenase (GAPDH) was amplified by PCR.
The PCR products were subjected to gel electrophoresis and ethidium bromide staining. FIG. 1(a) and FIG. 2(a) show the results.
To confirm the presence or absence of the amplification of a circular DNA including the looped-out S region, Southern hybridization was conducted against the PCR products using a mouse Sa region gene as a hybridization probe, according to standard methods (L. Sambrook E. F., Tom Maniatis., Second edition, Ed. Molecular Cloning (Nolan, C., Ed.) Cold Spring Harbor, 1989). A 1,155 bp DNA fragment obtained by digesting 10 kb EcoRI cleaved fragment IgH703 with Hind III and Earl was used as an Sα gene (Genbank #D11468, DNA No. 1993-3148) (J, Biol. Chem., Vol. 268, p. 4651-4665). FIGS. 1(b) and 2(b) show the results.

[2] = test system: AID mRNA in mouse B cell clone CH12F3-2; assay: Cytokine-induced AID (23C9) mRNA expression, Northern blotting; assay type: cell-based; conditions: cycloheximide 200 ng/ml, 12 hours, IL-4, TGF-β, CD40L
Protocol: The degree of enhanced expression of the gene coding for a novel protein 23C9 in mouse B cell clone CH12F3-2 stimulated with IL-4, TGF-β and CD40L was analyzed according to the standard method (L. Sambrook, E. F., Tom Maniatis., Second edition, Ed. Molecular Cloning (Nolan, C., Ed.), Cold Spring Harbour, 1989) by Northern blotting.
Mouse B cell clone CH12F3-2 was cultured in the presence of one of the following regents for 12 hours. • (1) IL-4, TGF-β and CD40L only. • (2) Cycloheximide which is a protein synthesis inhibitor (200 ng/ml), only • (3) IL-4, TGF-β and CD40L as well as Cycloheximide (200 ng/ml)
Northern blotting was conducted against mRNA (10 μg for each group) obtained in the same manner as previously reported (Nucleic Acid Res., 26:911-918, 1998) from each group of treated cells using a radio-labeled cDNA fragment (1,020 bp) coding for a novel protein 23C9, obtained in the above Example, according to the standard method (L. Sambrook, E. F., Tom Maniatis., Second edition, Ed. Molecular Cloning (Nolan, C., Ed.), Cold Spring Harbour, 1989).
As a control experiment, Northern blotting was conducted for mRNA derived from B cell clone CH12F3-2 cultured without any one of the above cytokines, or cycloheximide.
The amount of mRNA to be electrophoresed was adjusted using the amount of mRNA for glyceraldehyde-3-phosphate dehydrogenase (GAPDH) as an index. […]

T1 sequence (Q9WVE0 whole entry, the tested form may be a part): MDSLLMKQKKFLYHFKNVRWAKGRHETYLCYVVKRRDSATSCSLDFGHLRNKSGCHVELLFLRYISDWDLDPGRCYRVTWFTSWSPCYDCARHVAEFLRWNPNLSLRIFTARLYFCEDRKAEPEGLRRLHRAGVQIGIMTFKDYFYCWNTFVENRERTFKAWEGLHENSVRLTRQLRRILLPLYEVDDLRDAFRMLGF

| SMILES | inhibition of the cytidine deaminase activity of AID protein (AID protein) | inhibition of the cytidine deaminase activity of AID protein (in words) (AID protein) | production of looped-out DNA containing the Sα sequence with class switch recombination [1] | induction of AID mRNA expression by cytokines [2] |
| --- | --- | --- | --- | --- |
| c1cnc2c(c1)ccc1ncccc12 [1,7-o-phenanthroline] | about 13% | weak inhibition |  |  |
| C[C@@H]1C[C@@H]([C@H](O)CC2CC(=O)NC(=O)C2)C(=O)[C@@H](C)C1 [cycloheximide] |  |  | inhibited | can be inhibited |
| c1cnc2c(c1)ccc1cccnc12 [1,10-o-phenanthroline] | about 91% | inhibits |  |  |
